Data from US20250098679A1, “HERBICIDAL PYRIDONE DERIVATIVES” (SYNGENTA CROP PROTECTION AG, priority 2021, published 2025).

Key:
Format in all cases: in vivo
[1] = system: Amaranthus palmeri (AMAPA); test: Pre-emergence Test, Amaranthus palmeri (AMAPA); details: evaluated after 13 days
[2] = system: Echinochloa crus-galli (ECHCG); test: Pre-emergence Test, Echinochloa crus-galli (ECHCG); details: evaluated after 13 days
Zea mays (ZEAMX) [3] = test: Post-emergence Test, Zea mays (ZEAMX); design: key to percentage damage caused to the plant, ZEAMX (five-point scale): 5=81-100%, 4=61-80%, 3=41-60%, 2=21-40%, 1=0-20% damage; details: evaluated after 13 days
Method in brief: (§1)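 Percent plant damage was rated 13 days post-application on a 1–5 scale (1=0-20%, 5=81-100%). Application used an aqueous acetone (50:50)/0.5% Tween 20 spray, normally 1000 g/ha, with controlled glasshouse conditions (24/16 °C, 14 h light, 65% humidity).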

[4] = system: Echinochloa crus-galli (ECHCG); test: Post-emergence Test, Echinochloa crus-galli (ECHCG); design: key to percentage damage caused to the plant, ECHCG (five-point scale): 5=81-100%, 4=61-80%, 3=41-60%, 2=21-40%, 1=0-20% damage; details: evaluated after 13 days
Method in brief: as §1

[5] = system: Amaranthus retoflexus (AMARE); test: Pre-emergence Test, Amaranthus retoflexus (AMARE); details: evaluated after 13 days
[6] = system: Amaranthus palmeri (AMAPA); test: Post-emergence Test, Amaranthus palmeri (AMAPA); design: key: 5=81-100%, 4=61-80%, 3=41-60%, 2=21-40%, 1=0-20% damage; details: evaluated after 13 days
Method in brief: as §1

[7] = system: Ipomoea hederacea (IPOHE); test: Pre-emergence Test, Ipomoea hederacea (IPOHE); details: evaluated after 13 days
Zea mays (ZEAMX) [8] = test: Pre-emergence Test, Zea mays (ZEAMX); details: evaluated after 13 days
[9] = system: Ipomoea hederacea (IPOHE); test: Post-emergence Test, Ipomoea hederacea (IPOHE); design: key to percentage damage caused to the plant, IPOHE (five-point scale): 5=81-100%, 4=61-80%, 3=41-60%, 2=21-40%, 1=0-20% damage; details: evaluated after 13 days
Method in brief: as §1

[10] = system: Amaranthus retoflexus (AMARE); test: Post-emergence Test, Amaranthus retoflexus (AMARE); design: key to percentage damage caused to the plant, AMARE (five-point scale): 5=81-100%, 4=61-80%, 3=41-60%, 2=21-40%, 1=0-20% damage; details: evaluated after 13 days
Method in brief: as §1

Setaria faberi (SETFA) = test: Post-emergence Test, Setaria faberi (SETFA); design: key to percentage damage caused to the plant, SETFA (five-point scale): 5=81-100%, 4=61-80%, 3=41-60%, 2=21-40%, 1=0-20% damage; details: 1000 g/ha, evaluated after 13 days
Method in brief: as §1

| Structure (SMILES) | Pre-emergence Test AMAPA, percentage damage caused to the plant (five-point scale) ([1]; 250 g/Ha (*)) | Pre-emergence Test AMAPA, percentage damage caused to the plant (five-point scale) ([1]; 1000 g/ha) | Pre-emergence Test ECHCG, percentage damage caused to the plant (five-point scale) ([2]; 250 g/Ha (*)) | Pre-emergence Test ECHCG, percentage damage caused to the plant (five-point scale) ([2]; 1000 g/ha) | Pre-emergence Test AMARE, percentage damage caused to the plant (five-point scale) ([5]; 250 g/Ha (*)) | Pre-emergence Test AMARE, percentage damage caused to the plant (five-point scale) ([5]; 1000 g/ha) | Pre-emergence Test IPOHE, percentage damage caused to the plant (five-point scale) ([7]; 250 g/Ha (*)) | Pre-emergence Test IPOHE, percentage damage caused to the plant (five-point scale) ([7]; 1000 g/ha) | Pre-emergence Test ZEAMX, percentage damage caused to the plant (five-point scale) (Zea mays (ZEAMX) [8]; 250 g/Ha (*)) | Pre-emergence Test ZEAMX, percentage damage caused to the plant (five-point scale) (Zea mays (ZEAMX) [8]; 1000 g/ha) | other results |
| --- | --- | --- | --- | --- | --- | --- | --- | --- | --- | --- | --- |
| CCn1c(Cn2ccc(/C=N/OC)n2)cc(=O)c(C(=O)O)c1-c1ccc(Cl)c(Cl)c1 [Compound 204, 2-(3,4-dichlorophenyl)-1-ethyl-6-[[3-[(E)-methoxyiminomethyl]pyrazol-1-yl]methyl]-4-oxo-pyridine-3-carboxylic acid] | 1 (1=0-20%) | 1 (1=0-20%) | 2 (2=21-40%) | 4 (4=61-80%) | 0 | 1 (1=0-20%) | 2 (2=21-40%) | 4 (4=61-80%) | 1 (1=0-20%) | 2 (2=21-40%) | Post-emergence Test ZEAMX, percentage damage caused to the plant (five-point scale) (Zea mays (ZEAMX) [3]; 250 g/Ha (*)): 2 (2=21-40%); Post-emergence Test ZEAMX, percentage damage caused to the plant (five-point scale) (Zea mays (ZEAMX) [3]; 1000 g/ha): 3 (3=41-60%); Post-emergence Test ECHCG, percentage damage caused to the plant (five-point scale) ([4]; 250 g/Ha (*)): 3 (3=41-60%); Post-emergence Test AMAPA, percentage damage caused to the plant (five-point scale) ([6]; 250 g/Ha (*)): 1 (1=0-20%); Post-emergence Test AMAPA, percentage damage caused to the plant (five-point scale) ([6]; 1000 g/ha): 1 (1=0-20%); Post-emergence Test IPOHE, percentage damage caused to the plant (five-point scale) ([9]; 250 g/Ha (*)): 2 (2=21-40%); Post-emergence Test IPOHE, percentage damage caused to the plant (five-point scale) ([9]; 1000 g/ha): 3 (3=41-60%); Post-emergence Test AMARE, percentage damage caused to the plant (five-point scale) ([10]; 250 g/Ha (*)): 1 (1=0-20%); Post-emergence Test AMARE, percentage damage caused to the plant (five-point scale) ([10]; 1000 g/ha): 2 (2=21-40%); Post-emergence Test SETFA, percentage damage caused to the plant (five-point scale) (Setaria faberi (SETFA)): 4 (4=61-80%) |
| CCn1c(Cn2ccc(COC)n2)cc(=O)c(C(=O)O)c1-c1ccc(Cl)c(Cl)c1 [Compound 162, 2-(3,4-dichlorophenyl)-1-ethyl-6-[[3-(methoxymethyl)pyrazol-1-yl]methyl]-4-oxo-pyridine-3-carboxylic acid] | 0 | 1 (1=0-20%) | 3 (3=41-60%) | 5 (5=81-100%) | 1 (1=0-20%) | 3 (3=41-60%) | 1 (1=0-20%) | 4 (4=61-80%) | 1 (1=0-20%) | 4 (4=61-80%) | percentage damage caused to the plant, ZEAMX (five-point scale) (Zea mays (ZEAMX) [3]; 250 g/Ha): 1 (1=0-20%); percentage damage caused to the plant, ZEAMX (five-point scale) (Zea mays (ZEAMX) [3]; 1000 g/ha): 3 (3=41-60%); percentage damage caused to the plant, ECHCG (five-point scale) ([4]; 250 g/Ha): 3 (3=41-60%); percentage damage caused to the plant, AMAPA (five-point scale) ([6]; 250 g/Ha): 1 (1=0-20%); percentage damage caused to the plant, AMAPA (five-point scale) ([6]; 1000 g/ha): 2 (2=21-40%); percentage damage caused to the plant, IPOHE (five-point scale) ([9]; 250 g/Ha): 2 (2=21-40%); percentage damage caused to the plant, IPOHE (five-point scale) ([9]; 1000 g/ha): 4 (4=61-80%); percentage damage caused to the plant, AMARE (five-point scale) ([10]; 250 g/Ha): 1 (1=0-20%); percentage damage caused to the plant, AMARE (five-point scale) ([10]; 1000 g/ha): 2 (2=21-40%); percentage damage caused to the plant, SETFA (five-point scale) (Setaria faberi (SETFA)): 5 (5=81-100%) |
